Assay [1] concerns Colo320 cells. Description: Colo320 xenograft tumor growth. In kind it is in vivo, NMRI-Foxn1^nu/nu mice. As for the experimental part: Xenografts experiments were carried out in 4 weeks old female NMRI-Foxn1^nu/nu mice that were subcutaneously injected with Colo320 cells. For each tumor, 2 million cells were resuspended in Matrigel Matrix: PBS solution (1:1) (Corning, #354234) and 100 uL of volume was injected in the flanks of each mouse. Tumors were measured every other day using digital vernier caliper until the volume reached […]. At this point, they were sacrificed with CO2 and posterior cervical disruption. Tumors were isolated and frozen in -80°C for future analysis. For volume calculation, we used the formula V = ((LxW^2))/(2) [formula] in mm^3, were V = tumor volume, W = tumor width and L = tumor length.
To inhibit Mitochondrial Complex I in vivo, we employed IACS-010759 (Selleckchem, #S8731), a small-molecule inhibitor of complex I. IACS was dissolved in DMSO at a 10% concentration and then prepared for administration at 0.5% in Methyl cellulose (Sigma, #M0262). Each mouse received a dose of 10 mg/kg for five consecutive days via oral gavage.
We propose that sensitivity to OXPHOS inhibitors can be, at least in part, mediated by combined expression of the NADPH-producing enzymes G6PD and ME1. To test this hypothesis […], we correlated protein expression of G6PD and ME1 for hundreds of cell lines. […]

For assay [2], the system named is 143B cells. Description: Time-course cell proliferation / survival of 143B cells. Type of assay: cell-based. As to conditions: 143B cells under combined Piericidin and G6PDi, supplemented. As for the experimental part: All cell lines, 143b, HeLa, U2OS, and transmitochondrial cybrids carrying mutation in CI (ND2), CIII (CytB) or CIV (Cox2) subunits, were maintained in DMEM high glucose (HyClone), 10% FBS and 1% P/S at 37°C with 5% CO2. Mitochondrial mutant cells were cultured with supplementation of 50 µg/mL uridine. The selected cancer cell lines with different levels of malic enzyme (HCC15, KYSE410, CAKI1, J82, MDAMB453, Colo320, NCIH1703) were obtained from the DSMZ-German Collection of Microorganisms and Cell Cultures GmbH and cultured in the same DMEM 10% FBS medium. OCI-Lys3 and RCH-ACV cell lines (cells in suspension), were obtained from the same repository and cultured in RPMI 10% FBS medium. Transfections for gain- and loss-of-function studies were performed according to the manufacturer's instructions using the polyfect reagent (Qiagen, 301107). […] Subsequently, cells were trypsinized and quantified using a hemocytometer (NanoEnTek, DHC-N01). Cell viability was quantified using propidium iodide (PI; 50 µg/ml) staining.
Next, we conducted time-course experiments to gain further knowledge on the metabolic determinants underlying the observed synthetic lethality between PPP and OXPHOS. 143B cells were treated either with Piericidin or G6PDi (selective inhibitor of G6PD) alone or the combination of both and cell proliferation was quantified over the course of 96 h. […]

In assay [3] the test system is 143B cell lines. The assay can be described thus: Cell viability of CRISPR knock-out 143B cell lines treated with ETC inhibitors. In kind it is cell-based. As for the experimental part:
All cell lines, 143b, HeLa, U2OS, and transmitochondrial cybrids carrying mutation in CI (ND2), CIII (CytB) or CIV (Cox2) subunits, were maintained in DMEM high glucose (HyClone), 10% FBS and 1% P/S at 37°C with 5% CO2. Mitochondrial mutant cells were cultured with supplementation of 50 µg/mL uridine. The selected cancer cell lines with different levels of malic enzyme (HCC15, KYSE410, CAKI1, J82, MDAMB453, Colo320, NCIH1703) were obtained from the DSMZ-German Collection of Microorganisms and Cell Cultures GmbH and cultured in the same DMEM 10% FBS medium. OCI-Lys3 and RCH-ACV cell lines (cells in suspension), were obtained from the same repository and cultured in RPMI 10% FBS medium. Transfections for gain- and loss-of-function studies were performed according to the manufacturer's instructions using the polyfect reagent (Qiagen, 301107). For cell number and proliferation experiments, cells were seeded in 12 or 6-well plates and allowed to proliferate for the specified durations. Subsequently, cells were trypsinized and quantified using a hemocytometer (NanoEnTek, DHC-N01). Cell viability was quantified using propidium iodide (PI; 50 µg/ml) staining.
Generation of knockout cell lines using CRISPR-Cas9 technology was performed with the lenti-CRISPR v2 vector (Addgene #52961). Guide sequences are: • sgGFPT1, 5-[…]-3 (SEQ ID NO: 1); • sgG6PD, 5-[…]-3 (SEQ ID NO: 2); • sgPHGDH, 5-[…]-3 (SEQ ID NO: 3); • sgMPC1, 5-[…]-3 (SEQ ID NO: 4) • sgPC, 5-CAGGCCCGGAACACACGGA-3 (SEQ ID NO: 5); • sgACLY, 5-[…]-3 (SEQ ID NO: 6); • sgME1, 5-[…]-3 (SEQ ID NO: 7).
To investigate glucose-dependent alternative metabolic pathways that become essential upon ETC inhibition, we generated through CRISPR/Cas9 technology, knock-out (KO) 143B cell lines for each of the following rate-limiting enzymes and transporters. We selected glucose 6 phosphate dehydrogenase (G6PD) for the PPP, Glutamine-Fructose-6-Phosphate Transaminase 1 (GFPT1) for the hexosamine pathway, Phosphoglycerate Dehydrogenase (PHGDH) for the serine biosynthesis pathway and Mitochondrial Pyruvate Carrier 1 (MPC1) to prevent pyruvate entry into the mitochondria. These KO and Control cells were treated with two specific ETC inhibitors (Piericidin A that targets Complex I and Antimycin A that targets Complex III) and cell viability was assessed after 3 days of treatment. […] We took advantage of the fruit fly Drosophila melanogaster model, as it is cost- and time-efficient and recapitulate a wide range of phenotypes seen in patients with metabolic and mitochondrial disorders. We obtained flies carrying mutations in Zw and Pgd genes (named: Pgd^39 Zw^lo2a), corresponding to human orthologs G6PD and 6PGD respectively. […]

Take `Cc1nc(-c2nc(-c3ccc(OC(F)(F)F)cc3)no2)nn1Cc1cccc(N2CCC(S(C)(=O)=O)CC2)c1` [IACS-010759]: in assay [1] (Colo320 cells ectopically expressing ME1), the “effect on tumor size” value is “completely lost”. In addition, the tumor size result in assay [1] (Colo320 cells subcutaneous in nude mice, 10 mg/kg oral gavage) is on record as “prominently reduced”.
As to `N[C@@H](CCC(=O)N[C@@H](CS)C(=O)NCC(=O)O)C(=O)O` [GSH], the cell death phenotype result in assay [2] is reported as “rescued”.
On to Antimycin A, for which the cell viability result in assay [3] (G6PD KO 143B cells, after 3 days of treatment) was “sensitive”. For the same compound, the survival or proliferation result in assay [3] (KO cells for GFPT1, PHGDH or MPC1, after 3 days of treatment) is given as “no differences”.

The record behind these values is patent publication EP4653001A1, “TREATMENT, DIAGNOSIS AND/OR PROGNOSIS OF MITOCHONDRIAL DISEASES” (Universidad Autónoma de Madrid, priority 2024, dated 2025).
